pIC50: −log10 of the molar value. “Also recorded” adds a separate entry of the source.
Experiments:
[1] = tested on: alveolar Rhabdomyosarcoma cell lines; assay: Growth of Rhabdomyosarcoma cell lines, live cell imaging confluency; assay type: cell-based
Protocol: (§1) Briefly, human SMARCA2 was purified, and a high-throughput screen (HTS) of 40,000 compounds was conducted. […] In brief, cells were grown in RPMI media supplemented with 10% Fetal bovine serum (FBS), 1× penicillin, and streptomycin antibiotics. Cells were placed in an incubator with 5% C02 and 50% humidity. When cells reached 90% confluency, cells were harvested, washed twice in 1×PBS, counted using trypan blue exclusion method. Then cells were seeded in 96-well plates (duplicates, n=2) at the density of 20,000 cells per well. Allowed them to attach to the bottom of the well for 1 to 2 hrs and treated with different concentration of AT-301 compound starting at highest concentration of 10 micromolar to serial dilution of the compound to the lowest concentration of 0.039 micromolar. Cells treated with only DMSO were also included as negative control. Cells were monitored for 72 hrs. by live cell imaging method (Incucyte S3) taking images every two hours. The confluency was determined and plotted against time (hours) by using Prism software.
Assays were performed as detailed above for FIG. 4A-E.

D556 = assay: Cell proliferation assay and IC50 measurement (PrestoBlue); assay type: cell-based; details: PrestoBlue cell viability
Protocol: (§2) FIG. 10A-C show representative data illustrating that AT-301 kills Ewing's, RMS, GBM, AML, and other cancer cells. Cell lines were treated with serial dilutions (2×) of AT-301, and IC50 values of each cell line were determined using PrestoBlue dye for cell viability following manufacturer's protocol (Invitrogen, A13261). See also Table 3.
(§3) DAOY, D556 cells: EMEM, 10% FBS, Penicillin (100 units/mL) and streptomycin (100 μg/mL) in the presence of 5% CO2.
(§4) Proliferation of adherent cells was determined on the IncuCyte live-cell imaging system (Essen BioScience). Cells were seeded on clear bottom 96 well plates at a seeding density of 2000 cells/well. Cells were allowed to attach overnight after which the medium was replaced with fresh medium containing serial dilutions (2×) of the compound or DMSO control. Percent confluence was calculated by the IncuCyte software from four different images per well from at least three replicate wells. For non-adherent cells, the 96-well plates were coated with poly-L-lysine before seeding to facilitate cell adhesion. At the end of the assay, dose-dependent cell viability was determined by staining the cells with PrestoBlue (Invitrogen, A13261) as per manufacturer's instructions and IC50 was calculated (FIG. 10).

DAOY = assay: as above; assay type: cell-based; details: Homo sapiens, PrestoBlue cell viability
Protocol: as §2, §3, §4

SMARCAL1 = SMARCAL1 (Homo sapiens, UniProt Q9NZC9); assay: Activity of other SWI/SNF ATPases not part of the BAF complex; assay type: biochemical; details: SWI/SNF ATPase not part of the BAF complex
Ewing's sarcoma (EW13) = assay: Patient-derived xenograft (PDX) mouse model, single mouse testing (SMT); assay type: in vivo; details: 50 mg/kg orally three times a week for four weeks
Protocol: To assess the antitumor activity of AT-301 in a mouse model, a single mouse testing (SMT) experiment was used. SMT has 95% concordance with conventional testing and allows far greater inclusion of genetic/epigenetic heterogeneity. A patient-derived xenograft (PDX) mouse model (C.B.17 scid females (Envigo, IN)) of Ewing's sarcoma (EW13) was used in the SMT experiment. 50 mg/kg of AT-301 (formulated in 30% captisol) or just vehicle (30% captisol) was administered orally three times a week for four weeks.

BAF complex in RH4 cells = assay: BAF complex assembly, size-exclusion chromatography of nuclear lysates and immunoblot; assay type: cell-based; details: 7.5 μM AT-301
From the text: (§5) FIG. 12A-D show representative data illustrating that the assembly of BAF complex is perturbed by AT-301 inhibitor without perturbing oncogenic fusion protein levels. Referring to FIG. 12A and FIG. 12B, immunoblots of RH41 (FIG. 12A) and ES7 (FIG. 12B) cells after 4 and 12 hrs of treatment with AT-301 or DMSO. FOXO1 and FLI1 expression remains unchanged upon AT-301 treatment. Referring to FIG. 12C and FIG. 12D, gel filtration chromatography of ES3 (FIG. 12C) and RH41 (FIG. 12D) cell nuclear lysates after BAF-X-1 treatment are shown. Lysates were passed through a Sephacryl S-400 HR column and every fourth fraction was immuno-blotted for the proteins indicated with fraction numbers above the lanes.
(§6) Next, whether AT-301 can perturb the assembly of BAF complex was evaluated using size-exclusion chromatography (SEC) method. Cells were cultured on 15 cm petri-dishes. Nuclei were extracted and lysed. A HiPrep 16/60 Sephacryl S-400 HR column (GE) was equilibrated with a running buffer and 4 mg of the lysate was loaded on to the column. Fractions of 1 mL were eluted at an elution rate of 0.8 mL/min. Eluted proteins were analyzed by concentrating and immunoblotting every fourth fraction.

BAF complex in ES3 cells = assay: as above; assay type: cell-based; details: 7.5 μM AT-301
From the text: as §5, §6

endometrial cancer cells = assay: Growth/killing of endometrial cancer cells; assay type: cell-based; details: dose-dependent
Protocol: as §4
Referring to FIG. 10A, AT-301 kills a variety of cancer cells (brain tumors, rhabdomyosarcoma, nonsmall cell lung cancer, leukemia, and Ewing's Sarcoma. We also tested whether AT-301 can kill cells representing gynecological cancers (ovarian and endometrial cancer). As shown in FIG. 10B-C, AT-301 kills a variety of ovarian and endometrial cancer cells.

ES3 cells = assay: Live imaging of ES3 cells; assay type: cell-based
Protocol: In vivo live imaging of ES3 cells in the presence of AT-301 (IC50˜5 μM).
as §1

[2] = tested on: ES3 (Ewing's sarcoma) cells; assay: Apoptosis, IncuCyte Caspase-3/7 green reagent; assay type: cell-based
Protocol: Referring to FIG. 11A and FIG. 11B, RH4 (FIG. 11A) and ES3 (FIG. 11B) cells were treated with the indicated concentrations of BAF-X-1 or DMSO in triplicate and apoptosis was detected using the IncuCyte Caspase 3/7 green dye (Sartorius). Brightfield and green fluorescence images were captured every 2 hours from 4 fields per well on the IncuCyte live cell imager. The proportion of caspase positive (green) cells relative to % confluence of the well was calculated on the IncuCyte software and plotted against time. Referring to FIG. 11C and FIG. 11D, RH41 cells were treated with 7.5 μM AT-301 (FIG. 11D) or DMSO (FIG. 11C) for 24 hours, harvested with accutase, washed, and fixed in 70% ethanol. They were subsequently stained with propidium iodide/RNase and fluorescence was analyzed on BD flow cytometer. Resulting data was analyzed using FlowJo software.
The medium was then replaced with fresh medium containing dilutions of the compound (AT-301) or DMSO (as a negative control), and 1× IncuCyte Caspase-3/7 green reagent (Sartorius) and proliferation/apoptosis was measured on IncuCyte live-cell imaging system. The treated cells were imaged every (2/4) hours and four fields from each well were imaged for analysis.

Ewing Sarcoma cell lines = assay: Growth of Ewing Sarcoma cell lines, live cell imaging (Incucyte S3) confluency; assay type: cell-based
Protocol: as §1

SMARCAL1, sequence (Q9NZC9 whole entry): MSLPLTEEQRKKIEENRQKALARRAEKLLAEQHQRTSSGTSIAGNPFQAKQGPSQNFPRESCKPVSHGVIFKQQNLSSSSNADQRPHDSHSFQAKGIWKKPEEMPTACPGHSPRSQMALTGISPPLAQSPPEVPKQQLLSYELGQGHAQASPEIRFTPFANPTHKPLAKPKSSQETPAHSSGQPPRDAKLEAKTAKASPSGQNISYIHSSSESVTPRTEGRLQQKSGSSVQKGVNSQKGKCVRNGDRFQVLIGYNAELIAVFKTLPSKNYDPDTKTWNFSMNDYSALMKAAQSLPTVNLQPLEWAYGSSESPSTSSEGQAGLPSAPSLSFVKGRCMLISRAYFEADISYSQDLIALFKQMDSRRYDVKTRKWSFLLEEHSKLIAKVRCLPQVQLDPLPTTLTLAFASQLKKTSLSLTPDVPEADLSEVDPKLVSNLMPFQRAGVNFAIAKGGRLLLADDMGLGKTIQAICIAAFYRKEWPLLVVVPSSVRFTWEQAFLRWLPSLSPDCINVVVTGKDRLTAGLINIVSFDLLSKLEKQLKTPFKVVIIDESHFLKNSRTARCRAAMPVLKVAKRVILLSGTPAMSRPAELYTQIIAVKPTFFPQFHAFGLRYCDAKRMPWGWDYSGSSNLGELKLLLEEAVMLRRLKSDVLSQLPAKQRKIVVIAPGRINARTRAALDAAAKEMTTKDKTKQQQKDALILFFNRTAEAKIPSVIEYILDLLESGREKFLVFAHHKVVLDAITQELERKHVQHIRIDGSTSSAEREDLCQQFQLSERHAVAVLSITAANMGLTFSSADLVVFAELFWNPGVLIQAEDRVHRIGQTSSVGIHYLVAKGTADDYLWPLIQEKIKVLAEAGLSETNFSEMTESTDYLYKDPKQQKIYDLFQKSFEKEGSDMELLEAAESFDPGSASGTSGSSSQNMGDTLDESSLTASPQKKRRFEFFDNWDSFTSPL

`Clc1ccc(CNc2nc(NC3CCCC3)nc3ccccc23)cc1Cl` [AT-301, N^2-cyclopentyl-N^4-(3,4-dichlorobenzyl)quinazoline-2,4-diamine] was tested, and the “Growth of Rhabdomyosarcoma cell lines” value ([1]; 2 other lines) was “moderately attenuated the growth”, the “Growth of alveolar Rhabdomyosarcoma cell lines” value ([1]; 4 alveolar Rhabdomyosarcoma cell lines) was “attenuate the growth; also recorded: strongly attenuated the growth” and the pIC50 (D556) was 5.52. The pIC50 (DAOY) was 5.38, the “Inhibition of activity of SMARCAL1” value (SMARCAL1) was “fails to inhibit” and the Tumor growth (Ewing's sarcoma (EW13); 30% captisol, EW13 PDX in C.B.17 scid females) was “completely suppressed the tumor growth”. The Body weight (Ewing's sarcoma (EW13); EW13 PDX mouse) was “without any apparent loss in body weight”, the “Assembly of BAF complexes” value (BAF complex in RH4 cells) was “perturbed assembly” and the “Assembly of BAF complexes” value (BAF complex in ES3 cells) was “perturbed assembly”. The “Growth/killing of endometrial cancer cells” value (endometrial cancer cells) was “kills; also recorded: inhibits the growth”, the pIC50 (ES3 cells) was about 5.30 and the “Apoptosis (caspase 3/7)” value [2] was “induces apoptosis”. The pIC50 (Ewing Sarcoma cell lines; 8 different Ewing Sarcoma cell lines, 72 hrs live cell imaging) was about 5.30 and the “Growth of Ewing Sarcoma cell lines” value (Ewing Sarcoma cell lines; live cell imaging, confluency) was “attenuate the growth; also recorded: strongly attenuated the growth”.
